Source: ChEMBL document CHEMBL3779859, “Synergistic activity of a short lipidated antimicrobial peptide (lipoAMP) and colistin or tobramycin against Pseudomonas aeruginosa from cystic fibrosis patients” (Medchemcomm, 2016)
Values after ≈ are worked out from the molar mass of the structure shown. Active and inactive are the calls of the source. The calls are words filed in the database; no cut-off is given here. Peptide text beside a SMILES is read from it. * marks the point of attachment. Decanoyl = CCCCCCCCCC(=O)*

What was measured:
Pseudomonas aeruginosa [1] = assay: Antibacterial activity against Pseudomonas aeruginosa PAO1 clinical isolate assessed as inhibition of biofilm formation at 4 ug/ml after 18 to 22 hrs by crystal violet staining-based polystyrene microtiter plate reader method in presence of 0.5 ug/ml tobramycin; type: functional, organism-based
Pseudomonas aeruginosa [2] = assay: Antibacterial activity against Pseudomonas aeruginosa KD491 clinical isolate after 18 to 22 hrs by checkerboard method in presence of tobramycin; type: functional
Pseudomonas aeruginosa [3] = assay: Antibacterial activity against Pseudomonas aeruginosa PAO1 clinical isolate assessed as growth inhibition at 4 ug/ml measured every 15 mins by microtiter plate reader method in presence of 1 ug/ml colistin; type: functional, organism-based
Pseudomonas aeruginosa [4] = assay: Antibacterial activity against Pseudomonas aeruginosa LESB58 clinical isolate assessed as delay in growth at 4 to 32 ug/ml measured every 15 mins by microtiter plate reader method; type: functional, organism-based
Pseudomonas aeruginosa [5] = assay: Antibacterial activity against Pseudomonas aeruginosa KD557 clinical isolate after 16 to 20 hrs by microdilution assay; type: functional
Pseudomonas aeruginosa [6] = assay: Antibacterial activity against Pseudomonas aeruginosa kl 1.1 clinical isolate after 16 to 20 hrs by microdilution assay; type: functional
Pseudomonas aeruginosa [7] = assay: Antibacterial activity against Pseudomonas aeruginosa PAO1 clinical isolate assessed as delay in growth rate in exponential phase of bacterial growth curve at 4 to 32 ug/ml measured every 15 mins by microtiter plate reader method; type: functional, organism-based
Pseudomonas aeruginosa [8] = assay: Antibacterial activity against Pseudomonas aeruginosa KD491 clinical isolate assessed as growth inhibition at 4 ug/ml measured every 15 mins by microtiter plate reader method in presence of […] ug/ml colistin; type: functional, organism-based
Pseudomonas aeruginosa [9] = assay: Antibacterial activity against Pseudomonas aeruginosa PAO1 clinical isolate assessed as delay in growth at 4 to 32 ug/ml measured every 15 mins by microtiter plate reader method; type: functional, organism-based
Pseudomonas aeruginosa [10] = assay: Antibacterial activity against Pseudomonas aeruginosa PAO1 clinical isolate after 16 to 20 hrs by microdilution assay; type: functional
Pseudomonas aeruginosa [11] = assay: Antibacterial activity against Pseudomonas aeruginosa VW1501 clinical isolate after 16 to 20 hrs by microdilution assay; type: functional
Pseudomonas aeruginosa [12] = assay: Antibacterial activity against Pseudomonas aeruginosa PAO1 clinical isolate assessed as inhibition of biofilm formation at 4 ug/ml after 18 to 22 hrs by crystal violet staining-based polystyrene microtiter plate reader method in presence of 0.5 ug/ml colistin; type: functional, organism-based
Pseudomonas aeruginosa [13] = assay: Antibacterial activity against Pseudomonas aeruginosa PAO1 clinical isolate after 18 to 22 hrs by checkerboard method in presence of colistin; type: functional
Pseudomonas aeruginosa [14] = assay: Toxicity in Pseudomonas aeruginosa KD491 clinical isolate assessed as inhibition of planktonic cell growth at 2 to 4 ug/ml after 18 to 22 hrs by microtiter plate reader method; type: organism-based; details: in vivo
Pseudomonas aeruginosa [15] = assay: Antibacterial activity against Pseudomonas aeruginosa LESB58 clinical isolate assessed as growth inhibition at 4 ug/ml measured every 15 mins by microtiter plate reader method in presence of 2 ug/ml colistin; type: functional, organism-based
Pseudomonas aeruginosa [16] = assay: Antibacterial activity against Pseudomonas aeruginosa PAO1 clinical isolate assessed as inhibition of biofilm formation at 32 ug/ml after 18 to 22 hrs by crystal violet staining-based polystyrene microtiter plate reader method in presence of 2 ug/ml colistin; type: functional
Pseudomonas aeruginosa [17] = assay: Antibacterial activity against Pseudomonas aeruginosa Clone C clinical isolate assessed as delay in growth at 8 to 16 ug/ml measured every 15 mins by microtiter plate reader method; type: functional, organism-based
Pseudomonas aeruginosa [18] = assay: Antibacterial activity against Pseudomonas aeruginosa LES431 clinical isolate after 16 to 20 hrs by microdilution assay; type: functional
Pseudomonas aeruginosa [19] = assay: Antibacterial activity against Pseudomonas aeruginosa PAO1 clinical isolate assessed as inhibition of biofilm formation at 64 ug/ml after 18 to 22 hrs by crystal violet staining-based polystyrene microtiter plate reader method; type: functional
Pseudomonas aeruginosa [20] = assay: Antibacterial activity against Pseudomonas aeruginosa Clone C clinical isolate assessed as growth inhibition at 8 ug/ml measured every 15 mins by microtiter plate reader method in presence of […] ug/ml colistin; type: functional, organism-based
Pseudomonas aeruginosa [21] = assay: Antibacterial activity against Pseudomonas aeruginosa KD491 clinical isolate assessed as inhibition of biofilm formation at 8 ug/ml after 24 hrs by propidium iodide staining-based confocal laser microscopy; type: functional, organism-based
Pseudomonas aeruginosa [22] = assay: Antibacterial activity against Pseudomonas aeruginosa PAO1 clinical isolate after 18 to 22 hrs by checkerboard method in presence of tobramycin; type: functional
Pseudomonas aeruginosa [23] = assay: Antibacterial activity against Pseudomonas aeruginosa VW1540 clinical isolate after 16 to 20 hrs by microdilution assay; type: functional
Pseudomonas aeruginosa [24] = assay: Antibacterial activity against Pseudomonas aeruginosa LESB58 clinical isolate after 16 to 20 hrs by microdilution assay; type: functional
Pseudomonas aeruginosa [25] = assay: Antibacterial activity against Pseudomonas aeruginosa VW1471 clinical isolate after 16 to 20 hrs by microdilution assay; type: functional
Pseudomonas aeruginosa [26] = assay: Antibacterial activity against Pseudomonas aeruginosa PAO1 clinical isolate assessed as growth inhibition at 32 ug/ml measured every 15 mins by microtiter plate reader method in presence of […] ug/ml tobramycin; type: functional, organism-based
[27] = Hemolytic activity in erythrocytes (unknown origin) at 250 ug/ml; type: ADME, cell-based, Erythrocyte; details: read-out: Activity
Pseudomonas aeruginosa [28] = assay: Antibacterial activity against Pseudomonas aeruginosa MIDLANDS clinical isolate after 16 to 20 hrs by microdilution assay; type: functional
Pseudomonas aeruginosa [29] = assay: Antibacterial activity against Pseudomonas aeruginosa VW178 clinical isolate after 16 to 20 hrs by microdilution assay; type: functional
Pseudomonas aeruginosa [30] = assay: Antibacterial activity against Pseudomonas aeruginosa KD491 clinical isolate assessed as delay in growth rate in exponential phase of bacterial growth curve at 4 to 8 ug/ml measured every 15 mins by microtiter plate reader method; type: functional, organism-based
Pseudomonas aeruginosa [31] = assay: Antibacterial activity against Pseudomonas aeruginosa VW1485 clinical isolate after 16 to 20 hrs by microdilution assay; type: functional
Pseudomonas aeruginosa [32] = assay: Antibacterial activity against Pseudomonas aeruginosa VW0247 clinical isolate after 16 to 20 hrs by microdilution assay; type: functional
Pseudomonas aeruginosa [33] = assay: Antibacterial activity against Pseudomonas aeruginosa PAO1 clinical isolate assessed as inhibition of biofilm formation at 32 ug/ml after 18 to 22 hrs by crystal violet staining-based polystyrene microtiter plate reader method in absence of colistin; type: functional, organism-based
Pseudomonas aeruginosa [34] = assay: Antibacterial activity against Pseudomonas aeruginosa LESB58 clinical isolate assessed as delay in growth rate in exponential phase of bacterial growth curve at 4 to 32 ug/ml measured every 15 mins by microtiter plate reader method; type: functional, organism-based
Pseudomonas aeruginosa [35] = assay: Antibacterial activity against Pseudomonas aeruginosa Clone C clinical isolate assessed as growth inhibition at 16 ug/ml measured every 15 mins by microtiter plate reader method in presence of […] ug/ml tobramycin; type: functional, organism-based
Pseudomonas aeruginosa [36] = assay: Antibacterial activity against Pseudomonas aeruginosa Clone C clinical isolate after 16 to 20 hrs by microdilution assay; type: functional
Pseudomonas aeruginosa [37] = assay: Antibacterial activity against Pseudomonas aeruginosa D599 clinical isolate after 16 to 20 hrs by microdilution assay; type: functional
Pseudomonas aeruginosa [38] = assay: Antibacterial activity against Pseudomonas aeruginosa VW313 clinical isolate after 16 to 20 hrs by microdilution assay; type: functional
Pseudomonas aeruginosa [39] = assay: Antibacterial activity against Pseudomonas aeruginosa Clone C clinical isolate assessed as inhibition of biofilm formation at 32 ug/ml after 18 to 22 hrs by crystal violet staining-based polystyrene microtiter plate reader method in presence of 2 ug/ml tobramycin; type: functional, organism-based
Pseudomonas aeruginosa [40] = assay: Antibacterial activity against Pseudomonas aeruginosa Clone C clinical isolate assessed as delay in growth rate in exponential phase of bacterial growth curve at 8 to 16 ug/ml measured every 15 mins by microtiter plate reader method; type: functional, organism-based

With `CCCCCCCCCC(=O)NCCCC[C@H](NC(=O)[C@H](Cc1c[nH]c2ccccc12)NC(=O)[C@H](CCCNC(=N)N)NC(=O)[C@H](Cc1c[nH]c2ccccc12)NC(=O)[C@H](CCCNC(=N)N)NC(=O)[C@H](Cc1c[nH]c2ccccc12)NC(=O)[C@@H](N)CCCNC(=N)N)C(=O)O` (H-RWRWRWK(Decanoyl)-OH) the inhibition (Pseudomonas aeruginosa [1]) was “inactive”, the “fractional inhibitory concentration index (FICI)” value (Pseudomonas aeruginosa [2]) was 0.375 and the “growth inhibition (GI)” value (Pseudomonas aeruginosa [3]) was “Active”. The Activity (Pseudomonas aeruginosa [4]) was “Active”, the MIC (Pseudomonas aeruginosa [5]) was 256 µg/mL (≈ 193 µM) and the MIC (Pseudomonas aeruginosa [6]) was 128 µg/mL (≈ 96.4 µM). For the same compound, the Activity (Pseudomonas aeruginosa [7]) was “Active”, the “growth inhibition (GI)” value (Pseudomonas aeruginosa [8]) was “Active” and the Activity (Pseudomonas aeruginosa [9]) was “Active”. The MIC (Pseudomonas aeruginosa [10]) was 256 µg/mL (≈ 193 µM), the MIC (Pseudomonas aeruginosa [11]) was 128 µg/mL (≈ 96.4 µM) and the inhibition (Pseudomonas aeruginosa [12]) was “inactive”. For the same compound, the “fractional inhibitory concentration index (FICI)” value (Pseudomonas aeruginosa [13]) was 0.3125, the Activity (Pseudomonas aeruginosa [14]) was “Non-toxic” and the “growth inhibition (GI)” value (Pseudomonas aeruginosa [15]) was “Active”. The “inhibition (INH)” value (Pseudomonas aeruginosa [16]) was 84%, the Activity (Pseudomonas aeruginosa [17]) was “Active” and the MIC (Pseudomonas aeruginosa [18]) was 32 µg/mL (≈ 24.1 µM). For the same compound, the inhibition at 64 µg/mL (Pseudomonas aeruginosa [19]) was 81%, the “growth inhibition (GI)” value (Pseudomonas aeruginosa [20]) was “Active” and the inhibition (Pseudomonas aeruginosa [21]) was “inactive”. The “fractional inhibitory concentration index (FICI)” value (Pseudomonas aeruginosa [22]) was 0.75, the MIC (Pseudomonas aeruginosa [23]) was 64 µg/mL (≈ 48.2 µM) and the MIC (Pseudomonas aeruginosa [24]) was 128 µg/mL (≈ 96.4 µM). For the same compound, the MIC (Pseudomonas aeruginosa [25]) was 64 µg/mL (≈ 48.2 µM), the “growth inhibition (GI)” value (Pseudomonas aeruginosa [26]) was “Active” and the hemolysis at 250 ug/ml [27] was 50%. For the same compound, the MIC (Pseudomonas aeruginosa [28]) was 64 µg/mL (≈ 48.2 µM), the MIC (Pseudomonas aeruginosa [29]) was 32 µg/mL (≈ 24.1 µM) and the Activity (Pseudomonas aeruginosa [30]) was “Active”. The MIC (Pseudomonas aeruginosa [31]) was 256 µg/mL (≈ 193 µM), the MIC (Pseudomonas aeruginosa [32]) was 64 µg/mL (≈ 48.2 µM) and the inhibition (Pseudomonas aeruginosa [33]) was “inactive”. For the same compound, the Activity (Pseudomonas aeruginosa [34]) was “Active”, the “growth inhibition (GI)” value (Pseudomonas aeruginosa [35]) was “Active” and the MIC (Pseudomonas aeruginosa [36]) was 128 µg/mL (≈ 96.4 µM). For the same compound, the MIC (Pseudomonas aeruginosa [37]) was 128 µg/mL (≈ 96.4 µM), the MIC (Pseudomonas aeruginosa [38]) was 32 µg/mL (≈ 24.1 µM) and the inhibition (Pseudomonas aeruginosa [39]) was “inactive”. The Activity (Pseudomonas aeruginosa [40]) was “Active”.
